Experimental data published in ChEMBL document CHEMBL4229379, “Synthesis and structure-activity relationship of novel bisindole amidines active against MDR Gram-positive and Gram-negative bacteria” (Eur J Med Chem, 2018).
≈ marks a conversion by molar mass, not a printed value.

Columns and labels:
[1] = test system: Staphylococcus epidermidis; assay: Antibacterial activity against methicillin-sensitive Staphylococcus epidermidis ATCC 12228 after 18 hrs by CLSI broth microdilution method; assay type: functional; conditions: ATCC 12228, 18 h
[2] = test system: Staphylococcus epidermidis; assay: Antibacterial activity against methicillin-resistant Staphylococcus epidermidis 12-8 after 18 hrs by CLSI broth microdilution method; assay type: functional; conditions: 12-8, 18 h
Staphylococcus aureus [3] = assay: Antibacterial activity against methicillin-sensitive Staphylococcus aureus ATCC 29213 after 18 hrs by CLSI broth microdilution method; assay type: functional; conditions: ATCC 29213, 18 h
Staphylococcus aureus [4] = assay: Antibacterial activity against methicillin-resistant Staphylococcus aureus 12-33 after 18 hrs by CLSI broth microdilution method; assay type: functional; conditions: 12-33, 18 h
Enterococcus faecalis [5] = assay: Antibacterial activity against vancomycin-sensitive Enterococcus faecalis ATCC 29212 after 18 hrs by CLSI broth microdilution method; assay type: functional; conditions: ATCC 29212, 18 h
Enterococcus faecalis [6] = assay: Antibacterial activity against vancomycin-resistant Enterococcus faecalis 09-9 after 18 hrs by CLSI broth microdilution method; assay type: functional; conditions: 09-9, 18 h
Enterococcus faecium [7] = assay: Antibacterial activity against vancomycin-resistant Enterococcus faecium ATCC 700221 after 18 hrs by CLSI broth microdilution method; assay type: functional; conditions: ATCC 700221, 18 h
Enterococcus faecium [8] = assay: Antibacterial activity against vancomycin-sensitive Enterococcus faecium 12-3 after 18 hrs by CLSI broth microdilution method; assay type: functional; conditions: 12-3, 18 h
Escherichia coli [9] = assay: Antibacterial activity against extended-spectrum beta-lactamase deficient Escherichia coli ATCC 25922 after 18 hrs by CLSI broth microdilution method; assay type: functional; conditions: ATCC 25922, 18 h
Escherichia coli [10] = assay: Antibacterial activity against extended-spectrum beta-lactamase harboring Escherichia coli 12-15 after 18 hrs by CLSI broth microdilution method; assay type: functional; conditions: 12-15, 18 h
Klebsiella pneumoniae [11] = assay: Antibacterial activity against extended-spectrum beta-lactamase harboring Klebsiella pneumoniae ATCC 700603 after 18 hrs by CLSI broth microdilution method; assay type: functional; conditions: Klebsiella pneumoniae, 700603, 18 h
Klebsiella pneumoniae [12] = assay: Antibacterial activity against new delhi metallo-beta-lactamase-1 harboring Klebsiella pneumoniae ATCC BAA-2146 after 18 hrs by CLSI broth microdilution method; assay type: functional; conditions: ATCC BAA-2146, 18 h
Klebsiella pneumoniae [13] = assay: Antibacterial activity against extended-spectrum beta-lactamase harboring Klebsiella pneumoniae 12-8 after 18 hrs by CLSI broth microdilution method; assay type: functional; conditions: 12-8, 18 h
Pseudomonas aeruginosa [14] = assay: Antibacterial activity against Pseudomonas aeruginosa ATCC 27853 after 18 hrs by CLSI broth microdilution method; assay type: functional; conditions: ATCC 27853, 18 h
[15] = test system: Acinetobacter calcoaceticus; assay: Antibacterial activity against Acinetobacter calcoaceticus ATCC 19606 after 18 hrs by CLSI broth microdilution method; assay type: functional; conditions: ATCC 19606, 18 h
Enterobacter cloacae = assay: Antibacterial activity against Enterobacter cloacae ATCC 43560 after 18 hrs by CLSI broth microdilution method; assay type: functional; conditions: ATCC 43560, 18 h
Proteus mirabilis = assay: Antibacterial activity against Proteus mirabilis 12-6 after 18 hrs by CLSI broth microdilution method; assay type: functional; conditions: 12-6, 18 h
[16] = Cytotoxicity against HEK293T cells assessed as reduction in cell viability after 48 hrs by MTS assay; assay type: cell-based, HEK-293T; conditions: human
[17] = test system: Staphylococcus epidermidis; assay: Antibacterial activity against methicillin-sensitive Staphylococcus epidermidis 12-6 after 18 hrs by CLSI broth microdilution method; assay type: functional; conditions: 12-6, 18 h
Staphylococcus aureus [18] = assay: Antibacterial activity against methicillin-resistant Staphylococcus aureus ATCC 33591 after 18 hrs by CLSI broth microdilution method; assay type: functional; conditions: ATCC 33591, 18 h
Staphylococcus aureus [19] = assay: Antibacterial activity against methicillin-sensitive Staphylococcus aureus 15 after 18 hrs by CLSI broth microdilution method; assay type: functional; conditions: Staphylococcus aureus, 15, 18 h
Staphylococcus aureus [20] = assay: Antibacterial activity against methicillin-sensitive Staphylococcus aureus 12-28 after 18 hrs by CLSI broth microdilution method; assay type: functional; conditions: 12-28, 18 h
Enterococcus faecalis [21] = assay: Antibacterial activity against vancomycin-resistant Enterococcus faecalis ATCC 51299 after 18 hrs by CLSI broth microdilution method; assay type: functional; conditions: ATCC 51299, 18 h
Enterococcus faecalis [22] = assay: Antibacterial activity against vancomycin-sensitive Enterococcus faecalis 12-5 after 18 hrs by CLSI broth microdilution method; assay type: functional; conditions: 12-5, 18 h
Enterococcus faecium [23] = assay: Antibacterial activity against vancomycin-resistant Enterococcus faecium 12-1 after 18 hrs by CLSI broth microdilution method; assay type: functional; conditions: 12-1, 18 h
Escherichia coli [24] = assay: Antibacterial activity against extended-spectrum beta-lactamase deficient Escherichia coli 1515 after 18 hrs by CLSI broth microdilution method; assay type: functional; conditions: Escherichia coli, 1515, 18 h
Escherichia coli [25] = assay: Antibacterial activity against extended-spectrum beta-lactamase deficient Escherichia coli 12-14 after 18 hrs by CLSI broth microdilution method; assay type: functional; conditions: 12-14, 18 h
Klebsiella pneumoniae [26] = assay: Antibacterial activity against extended-spectrum beta-lactamase deficient Klebsiella pneumoniae 7 after 18 hrs by CLSI broth microdilution method; assay type: functional; conditions: Klebsiella pneumoniae, 7, 18 h
Klebsiella pneumoniae [27] = assay: Antibacterial activity against extended-spectrum beta-lactamase deficient Klebsiella pneumoniae 12-4 after 18 hrs by CLSI broth microdilution method; assay type: functional; conditions: 12-4, 18 h
Pseudomonas aeruginosa [28] = assay: Antibacterial activity against Pseudomonas aeruginosa PAO1 after 18 hrs by CLSI broth microdilution method; assay type: functional; conditions: PAO1, 18 h
Pseudomonas aeruginosa [29] = assay: Antibacterial activity against Pseudomonas aeruginosa 12-16 after 18 hrs by CLSI broth microdilution method; assay type: functional; conditions: 12-16, 18 h
Klebsiella aerogenes = assay: Antibacterial activity against Enterobacter aerogenes ATCC 13048 after 18 hrs by CLSI broth microdilution method; assay type: functional; conditions: ATCC 13048, 18 h
Serratia marcescens = assay: Antibacterial activity against Serratia marcescens ATCC 21074 after 18 hrs by CLSI broth microdilution method; assay type: functional; conditions: ATCC 21074, 18 h
Providencia rettgeri = assay: Antibacterial activity against Providencia rettgeri ATCC 31052 after 18 hrs by CLSI broth microdilution method; assay type: functional; conditions: ATCC 31052, 18 h
Proteus vulgaris = assay: Antibacterial activity against Proteus vulgaris ATCC 29905 after 18 hrs by CLSI broth microdilution method; assay type: functional; conditions: ATCC 29905, 18 h
[30] = test system: Stenotrophomonas maltophilia; assay: Antibacterial activity against Stenotrophomonas maltophilia ATCC 13636 after 18 hrs by CLSI broth microdilution method; assay type: functional; conditions: ATCC 13636, 18 h
Citrobacter freundii = assay: Antibacterial activity against Citrobacter freundii ATCC 43864 after 18 hrs by CLSI broth microdilution method; assay type: functional; conditions: ATCC 43864, 18 h

Row | Structure (SMILES) | MIC [1] [µg/mL] | MIC [2] [µg/mL] | MIC (Staphylococcus aureus [3]) [µg/mL] | MIC (Staphylococcus aureus [4]) [µg/mL] | MIC (Enterococcus faecalis [5]) [µg/mL] | MIC (Enterococcus faecalis [6]) [µg/mL] | MIC (Enterococcus faecium [7]) [µg/mL] | MIC (Enterococcus faecium [8]) [µg/mL] | MIC (Escherichia coli [9]) [µg/mL] | MIC (Escherichia coli [10]) [µg/mL] | MIC (Klebsiella pneumoniae [11]) [µg/mL] | MIC (Klebsiella pneumoniae [12]) [µg/mL] | MIC (Klebsiella pneumoniae [13]) [µg/mL] | MIC (Pseudomonas aeruginosa [14]) [µg/mL] | MIC [15] [µg/mL] | MIC (Enterobacter cloacae) [µg/mL] | MIC (Proteus mirabilis) [µg/mL] | CC50 at 48 h [16] [µg/mL] | MIC [17] [µg/mL] | MIC (Staphylococcus aureus [18]) [µg/mL] | also measured
1 | N=C(c1ccc2cc(-c3ccc(-c4cc5ccc(C(=N)N6CCOCC6)cc5[nH]4)cc3)[nH]c2c1)N1CCOCC1 | 0.5 (≈ 0.939 µM) | 0.5 (≈ 0.939 µM) | 1 (≈ 1.88 µM) | 0.5 (≈ 0.939 µM) | 4 (≈ 7.51 µM) | 4 (≈ 7.51 µM) | 4 (≈ 7.51 µM) | 4 (≈ 7.51 µM) | 4 (≈ 7.51 µM) | 4 (≈ 7.51 µM) | 16 (≈ 30 µM) | 8 (≈ 15 µM) | 8 (≈ 15 µM) | > 128 | 32 (≈ 60.1 µM) | 4 (≈ 7.51 µM) | 32 (≈ 60.1 µM) | 16.4 (≈ 30.9 µM) | 0.5 (≈ 0.939 µM) | 0.5 (≈ 0.939 µM) | MIC (Staphylococcus aureus [19]): 0.5 µg/mL (≈ 0.939 µM); MIC (Staphylococcus aureus [20]): 0.5 µg/mL (≈ 0.939 µM); MIC (Enterococcus faecalis [21]): 4 µg/mL (≈ 7.51 µM); MIC (Enterococcus faecalis [22]): 8 µg/mL (≈ 15 µM); MIC (Enterococcus faecium [23]): 2 µg/mL (≈ 3.75 µM); MIC (Escherichia coli [24]): 4 µg/mL (≈ 7.51 µM); MIC (Escherichia coli [25]): 4 µg/mL (≈ 7.51 µM); MIC (Klebsiella pneumoniae [26]): 8 µg/mL (≈ 15 µM); MIC (Klebsiella pneumoniae [27]): 16 µg/mL (≈ 30 µM); MIC (Pseudomonas aeruginosa [28]): > 128 µg/mL; MIC (Pseudomonas aeruginosa [29]): > 128 µg/mL; MIC (Klebsiella aerogenes): 8 µg/mL (≈ 15 µM); MIC (Serratia marcescens): > 128 µg/mL; MIC (Providencia rettgeri): 8 µg/mL (≈ 15 µM); MIC (Proteus vulgaris): 8 µg/mL (≈ 15 µM); MIC [30]: > 128 µg/mL; MIC (Citrobacter freundii): 4 µg/mL (≈ 7.51 µM)
2 | CN(C)C(=N)c1ccc2cc(-c3ccc4cc(-c5cc6ccc(C(=N)N(C)C)cc6[nH]5)ccc4c3)[nH]c2c1 | 2 (≈ 4.01 µM) | 1 (≈ 2.01 µM) | 2 (≈ 4.01 µM) | 2 (≈ 4.01 µM) | 32 (≈ 64.2 µM) | 4 (≈ 8.02 µM) | 32 (≈ 64.2 µM) | 16 (≈ 32.1 µM) | 32 (≈ 64.2 µM) | 64 (≈ 128 µM) | > 128 | > 128 | 128 (≈ 257 µM) | > 128 | 128 (≈ 257 µM) | 64 (≈ 128 µM) | > 128 | 6.2 (≈ 12.4 µM) | 32 (≈ 64.2 µM) | 2 (≈ 4.01 µM) | MIC (Staphylococcus aureus [19]): 2 µg/mL (≈ 4.01 µM); MIC (Staphylococcus aureus [20]): 2 µg/mL (≈ 4.01 µM); MIC (Enterococcus faecalis [21]): 32 µg/mL (≈ 64.2 µM); MIC (Enterococcus faecalis [22]): 32 µg/mL (≈ 64.2 µM); MIC (Enterococcus faecium [23]): 32 µg/mL (≈ 64.2 µM); MIC (Escherichia coli [24]): 32 µg/mL (≈ 64.2 µM); MIC (Escherichia coli [25]): 32 µg/mL (≈ 64.2 µM); MIC (Klebsiella pneumoniae [26]): > 128 µg/mL; MIC (Klebsiella pneumoniae [27]): > 128 µg/mL; MIC (Pseudomonas aeruginosa [28]): > 128 µg/mL; MIC (Pseudomonas aeruginosa [29]): > 128 µg/mL; MIC (Klebsiella aerogenes): > 128 µg/mL; MIC (Serratia marcescens): > 128 µg/mL; MIC (Providencia rettgeri): 128 µg/mL (≈ 257 µM); MIC (Proteus vulgaris): 64 µg/mL (≈ 128 µM); MIC [30]: 32 µg/mL (≈ 64.2 µM); MIC (Citrobacter freundii): 32 µg/mL (≈ 64.2 µM)
3 | CN1CCC2(CC1)CCN(C(=N)c1ccc3cc(-c4ccc(-c5cc6ccc(C(=N)N7CCC8(CCN(C)CC8)C7)cc6[nH]5)cc4)[nH]c3c1)C2 | 2 (≈ 3 µM) | 4 (≈ 6 µM) | 8 (≈ 12 µM) | 8 (≈ 12 µM) | 16 (≈ 24 µM) | 16 (≈ 24 µM) | 16 (≈ 24 µM) | 16 (≈ 24 µM) | 8 (≈ 12 µM) | 16 (≈ 24 µM) | 64 (≈ 96 µM) | 16 (≈ 24 µM) | 16 (≈ 24 µM) | 32 (≈ 48 µM) | > 128 | > 128 | > 128 | 28.4 (≈ 42.7 µM) | 8 (≈ 12 µM) | 8 (≈ 12 µM) | MIC (Staphylococcus aureus [19]): 8 µg/mL (≈ 12 µM); MIC (Staphylococcus aureus [20]): 16 µg/mL (≈ 24 µM); MIC (Enterococcus faecalis [21]): 16 µg/mL (≈ 24 µM); MIC (Enterococcus faecalis [22]): 128 µg/mL (≈ 192 µM); MIC (Enterococcus faecium [23]): 16 µg/mL (≈ 24 µM); MIC (Escherichia coli [24]): 8 µg/mL (≈ 12 µM); MIC (Escherichia coli [25]): 16 µg/mL (≈ 24 µM); MIC (Klebsiella pneumoniae [26]): 8 µg/mL (≈ 12 µM); MIC (Klebsiella pneumoniae [27]): 16 µg/mL (≈ 24 µM); MIC (Pseudomonas aeruginosa [28]): 64 µg/mL (≈ 96 µM); MIC (Pseudomonas aeruginosa [29]): 128 µg/mL (≈ 192 µM); MIC (Klebsiella aerogenes): 16 µg/mL (≈ 24 µM); MIC (Serratia marcescens): > 128 µg/mL; MIC (Providencia rettgeri): > 128 µg/mL; MIC (Proteus vulgaris): 128 µg/mL (≈ 192 µM); MIC [30]: > 128 µg/mL; MIC (Citrobacter freundii): 16 µg/mL (≈ 24 µM)
